Test results reported in publication PMC9259769, “Biochemical characterization and peptide mass fingerprinting of two glutathione transferases from Biomphalaria alexandrina snails (Gastropoda: Planorbidae)” (Journal of Genetic Engineering & Biotechnology, 2022).
pIC50: −log10 of the molar value. Where two headings read alike, the source gives them in different places.

What was measured:
BaGST2 [1] = assay: Inhibition of GSH-CDNB-conjugating activity and type of inhibition; assay type: biochemical, Biomphalaria alexandrina; details: for pIC50: GSH-CDNB-conjugating activity, standard assay conditions; for Type of inhibition / Vmax in the presence of inhibitor: CDNB as substrate; for Type of inhibition: inhibitor at less than I20; for Vmax in the presence of inhibitor: inhibitor at less than I20, without inhibitor 75.5
Method: (§1) One unit of transferase activity is defined as the amount of enzyme which catalyzes the formation of 1 μmol of thioether per min, and the specific activity is expressed as μmol/min/mg protein.
(§2) The IC50 values were determined according to Yalcin [18]. The IC50 values were determined by plotting percentage activity values versus log inhibitor concentrations.
(§3) The type of inhibition of BSP, hematin, and CB was also examined by studying the effect of constant concentration (less than IC20) of each inhibitor on the Km (CDNB) and Vmax of BaGST2 and BaGST3.

BaGST3 [2] = assay: as above; assay type: biochemical, Biomphalaria alexandrina; details: for pIC50: GSH-CDNB-conjugating activity, standard assay conditions; for Type of inhibition / Vmax in the presence of inhibitor: CDNB as substrate; for Type of inhibition: inhibitor at less than I20; for Vmax in the presence of inhibitor: inhibitor at less than I20, without inhibitor 48.8
Method: as §1, §2, §3

BaGST2 [3] = assay: Kinetic studies with varied GSH and CDNB concentrations; assay type: biochemical, Biomphalaria alexandrina; details: 25 °C, substrate varied (CDNB 0.01-1.5 mM, GSH 0.025-1.5 mM)
Description: as §1

BaGST3 [4] = assay: as above; assay type: biochemical, Biomphalaria alexandrina
Description: as §1

[5] = target: Biomphalaria alexandrina glutathione transferase BaGST3 (Biomphalaria alexandrina); assay: SEC; Sephadex G-75 column (90 x 1.4 cm), 20 mM Tris-HCl pH 8.0, 100 mM NaCl, 4 °C; calibrated with standard proteins; apparent MW about 45 kDa compared with the subunit MW of 23.6 kDa by SDS-PAGE
BaGST2 [6] = assay: Substrate specificity (glutathione transferase and peroxidase assays); assay type: biochemical, Biomphalaria alexandrina
Description: as §1
(§4) Enzyme activity with various aromatic substrates, namely, bromosulfophthalein (BSP), 1, 2-dichloro-4-nitrobenzene (DCNB), p-nitrophenethyl-bromide, and ethacrynic acid (EA), was examined as described.
(§5) Substrate specificities of BaGST2 and BaGST3 toward several compounds were studied.

BaGST3 [7] = assay: as above; assay type: biochemical, Biomphalaria alexandrina
Description: as §1, §4, §5

`CCCCCCSC[C@H](NC(=O)CC[C@H](N)C(=O)O)C(=O)NCC(=O)O` [S–hexyl-GSH, S-hexyl-GSH] gave a pIC50 (BaGST2 [1]) of 4.44 and a pIC50 (BaGST3 [2]) of 4.71.

In the case of `Nc1c(S(=O)(=O)O)cc(Nc2ccc(Nc3nc(Cl)nc(Nc4ccccc4S(=O)(=O)O)n3)c(S(=O)(=O)O)c2)c2c1C(=O)c1ccccc1C2=O` [CB, Cibacron Blue], the Type of inhibition (BaGST2 [1]) was “Competitive”, the “Vmax in the presence of inhibitor” value (BaGST2 [1]) was 75.5 μmol/min/mg protein and the pIC50 (BaGST2 [1]) was 5.63. The Type of inhibition (BaGST3 [2]) was “Competitive”, the “Vmax in the presence of inhibitor” value (BaGST3 [2]) was 48.8 μmol/min/mg protein and the pIC50 (BaGST3 [2]) was 6.24.

Compound `N[C@@H](CCC(=O)N[C@@H](CS)C(=O)NCC(=O)O)C(=O)O` [GSH, γ-L-glutamyl-L-cysteinyl-glycine] has a Km (BaGST2 [3]) of 220 µM, a Km (BaGST3 [4]; read-out: Km (GSH), high GSH concentrations, non-Michaelian, GSH 0.5-5 mM) of 610 µM and a Km (BaGST3 [4]; read-out: Km (GSH), low GSH concentrations, non-Michaelian, GSH 0.025-0.5 mM) of 150 µM.

Work on “Biomphalaria alexandrina glutathione transferase BaGST3 (enzyme)” yielded a stoichiometry N [5] of 2.

`N[C@@H](CCC(=O)N[C@@H](CSCc1ccc(Br)cc1)C(=O)NCC(=O)O)C(=O)O` [S-P-bromobenzyl-GSH] was tested, and the pIC50 (BaGST2 [1]) was 5.03 and the pIC50 (BaGST3 [2]) was 4.46.

With `O=[N+]([O-])c1ccc(Cl)c([N+](=O)[O-])c1` [CDNB, 1-chloro-2,4-dinitrobenzene] the Km (BaGST2 [3]) was 3330 µM, the Km (BaGST3 [4]; 25 °C, CDNB varied 0.01-1.5 mM, read-out: Km) was 50 µM and the “Specific activity toward CDNB” value (BaGST2 [6]; BaGST2 after GSH-Sepharose, 146-fold purification) was 19.0 μmol/min/mg protein. The “Specific activity toward CDNB” value (BaGST3 [7]; BaGST3 after GSH-Sepharose, 346-fold purification) was 45.2 μmol/min/mg protein.

In the case of `C=CC1=C(C)c2cc3[n-]c(cc4[n-]c(cc5nc(cc1n2)C(C)=C5C=C)c(C)c4CCC(=O)O)c(CCC(=O)O)c3C.O.[Fe+2]` [Hematin, hematin], the Type of inhibition (BaGST2 [1]) was “Mixed”, the “Vmax in the presence of inhibitor” value (BaGST2 [1]) was 13.7 μmol/min/mg protein and the pIC50 (BaGST2 [1]) was 5.87. For the same compound, the Type of inhibition (BaGST3 [2]) was “Noncompetitive”, the “Vmax in the presence of inhibitor” value (BaGST3 [2]) was 15.8 μmol/min/mg protein and the pIC50 (BaGST3 [2]) was 6.34.

`CC(C)(OO)c1ccccc1` [CuOOH, cumene hydroperoxide] was tested, and the “Activity toward substrate (in words)” value (BaGST2 [6]; BaGST2) was “peroxidase activity”, the “Substrate specificity (specific activity)” value (BaGST2 [6]; BaGST2, means ± SD, n ≥ 4) was 0.60 ± 0.02 µmol/min/mg and the “Activity toward substrate (in words)” value (BaGST3 [7]; BaGST3) was “peroxidase activity”. The “Substrate specificity (specific activity)” value (BaGST3 [7]; BaGST3, means ± SD, n ≥ 4) was 1.40 ± 0.03 µmol/min/mg.

For `C=C(CC)C(=O)c1ccc(OCC(=O)O)c(Cl)c1Cl` [EA, ethacrynic acid], the “Activity toward substrate (in words)” value (BaGST2 [6]; BaGST2) was “high activity”, the “Substrate specificity (specific activity)” value (BaGST2 [6]; BaGST2, means ± SD, n ≥ 4) was 3.80 ± 0.11 µmol/min/mg and the “Activity toward substrate (in words)” value (BaGST3 [7]; BaGST3) was “high activity”. The “Substrate specificity (specific activity)” value (BaGST3 [7]; BaGST3, means ± SD, n ≥ 4) was 2.60 ± 0.10 µmol/min/mg.

For `O=[N+]([O-])c1ccc(Cl)c(Cl)c1` [DCNB, 1,2-dichloro-4-nitrobenzene], the “Activity toward substrate (in words)” value (BaGST2 [6]; BaGST2) was “low activity”, the “Substrate specificity (specific activity), DCNB × 10^3” value (BaGST2 [6]; BaGST2, means ± SD, n ≥ 4) was 30 ± 1.5 μmol/min/mg × 10^3 and the “Activity toward substrate (in words)” value (BaGST3 [7]; BaGST3) was “low activity”. For the same compound, the “Substrate specificity (specific activity), DCNB × 10^3” value (BaGST3 [7]; BaGST3, means ± SD, n ≥ 4) was 10 ± 0.6 μmol/min/mg × 10^3.

`O=C1OC(c2ccc(O)c(S(=O)(=O)O)c2)(c2ccc(O)c(S(=O)(=O)O)c2)c2c(Br)c(Br)c(Br)c(Br)c21` [BSP, bromosulfophthalein] was tested, and the Type of inhibition (BaGST2 [1]) was “Competitive”, the “Vmax in the presence of inhibitor” value (BaGST2 [1]) was 75.5 μmol/min/mg protein and the pIC50 (BaGST2 [1]) was 4.09. The pIC50 (BaGST3 [2]) was 4.02, the “Activity toward substrate (in words)” value (BaGST2 [6]; BaGST2) was “did not show any detectable activity” and the “Activity toward substrate (in words)” value (BaGST3 [7]; BaGST3) was “did not show any detectable activity”.

For `O=[N+]([O-])c1ccc(CCBr)cc1` [p-Nitro-phenethylbromide, p-nitrophenethyl-bromide], the “Activity toward substrate (in words)” value (BaGST2 [6]; BaGST2) was “low activity”, the “Substrate specificity (specific activity)” value (BaGST2 [6]; BaGST2, means ± SD, n ≥ 4) was 2.70 ± 0.13 µmol/min/mg and the “Activity toward substrate (in words)” value (BaGST3 [7]; BaGST3) was “low activity”. The “Substrate specificity (specific activity)” value (BaGST3 [7]; BaGST3, means ± SD, n ≥ 4) was 6.00 ± 0.20 µmol/min/mg.

Compound `CCCCSCC(NC(=O)CCC(N)C(=O)O)C(=O)NCC(=O)O` (stereo not drawn) [S-butyl-GSH] has a pIC50 (BaGST2 [1]) of 4.16 and a pIC50 (BaGST3 [2]) of 4.29.
